Test results from PubChem BioAssay AID256 (DTP/NCI, 2004).
“And” between values parts separate entries of the source, which are not always exact repeats. Equal entries are not always repeated. Inconclusive results and toxic doses are left out. The calls were made as follows: active = survival T/C of 150% or more; inactive = T/C below 125% in these data.

Test system: CD2F1 mice, L1210 leukemia ip, survival T/C
Assay: NCI In Vivo Anticancer Drug Screen. Data for tumor model L1210 Leukemia (intraperitoneal) in CD2F1 (CDF1) mice
Settings: higher = longer survival
Summary of the method: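 Implant tumor; dose compound or vehicle; measure endpoint in both groups; report treated divided by control.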

[1] = endpoint: mean survival time, dose: 50.0 mg/kg/injection, schedule: Q01DX001 (ip), vehicle: Klucel (hydroxypropylcellulose) (HPC)
[2] = endpoint: mean survival time, dose: 50.0 mg/kg/injection, schedule: Q01DX009 (ip), vehicle: Klucel (hydroxypropylcellulose) (HPC)
[3] = endpoint: mean survival time, dose: 100.0 mg/kg/injection, schedule: Q01DX009 (ip), vehicle: saline with Tween-80
[4] = endpoint: mean survival time, dose: 200.0 mg/kg/injection, schedule: Q01DX009 (ip), vehicle: saline with Tween-80
[5] = endpoint: mean survival time, dose: 400.0 mg/kg/injection, schedule: Q01DX009 (ip), vehicle: saline with Tween-80
[6] = endpoint: mean survival time, dose: 50.0 mg/kg/injection, schedule: Q01DX009 (ip), vehicle: other
[7] = endpoint: mean survival time, dose: 100.0 mg/kg/injection, schedule: Q01DX009 (ip), vehicle: other
[8] = endpoint: mean survival time, dose: 200.0 mg/kg/injection, schedule: Q01DX009 (ip), vehicle: other
[9] = endpoint: mean survival time, dose: 100.0 mg/kg/injection, schedule: Q04DX003 (ip), vehicle: saline with Tween-80
[10] = endpoint: mean survival time, dose: 100.0 mg/kg/injection, schedule: Q04DX002 (ip), vehicle: saline with Tween-80
[11] = endpoint: mean survival time, dose: 200.0 mg/kg/injection, schedule: Q04DX002 (ip), vehicle: saline with Tween-80
[12] = endpoint: mean survival time, dose: 400.0 mg/kg/injection, schedule: Q04DX002 (ip), vehicle: saline with Tween-80
[13] = endpoint: mean survival time, dose: 100.0 mg/kg/injection, schedule: Q01DX001 (ip), vehicle: saline with Tween-80
[14] = endpoint: mean survival time, dose: 200.0 mg/kg/injection, schedule: Q01DX001 (ip), vehicle: saline with Tween-80
[15] = endpoint: mean survival time, dose: 400.0 mg/kg/injection, schedule: Q01DX001 (ip), vehicle: saline with Tween-80

Measured: T/C

CCCC[P+](CCCC)(CCCC)Cc1ccc([N+](=O)[O-])cc1
inactive: endpoint: mean survival time, dose: 12.5 mg/kg/injection, schedule: Q01DX009 (ip), vehicle: Klucel (hydroxypropylcellulose) (HPC) 104 % of control | endpoint: mean survival time, dose: 25.0 mg/kg/injection, schedule: Q01DX009 (ip), vehicle: Klucel (hydroxypropylcellulose) (HPC) 96 % of control | endpoint: mean survival time, dose: 25.0 mg/kg/injection, schedule: Q04DX003 (ip), vehicle: Klucel (hydroxypropylcellulose) (HPC) 94 % of control | [1] 96 % of control | [2] 115 % of control | endpoint: mean survival time, dose: 50.0 mg/kg/injection, schedule: Q04DX002 (ip), vehicle: Klucel (hydroxypropylcellulose) (HPC) 96 % of control | endpoint: mean survival time, dose: 50.0 mg/kg/injection, schedule: Q04DX003 (ip), vehicle: Klucel (hydroxypropylcellulose) (HPC) 94 % of control

CC(C(=O)c1cc(O)c(O)cc1C(O)(C(F)(F)F)C(F)(F)F)C(O)(C(F)(F)F)C(F)(F)F (configuration not stated)
inactive: [3] 94 % of control | [4] 94 % of control | [5] 94 % of control

O=C(NNC(=O)C(F)(F)F)c1ccccc1
inactive: endpoint: mean survival time, dose: 12.5 mg/kg/injection, schedule: Q01DX009 (ip), vehicle: other 92 % of control | endpoint: mean survival time, dose: 25.0 mg/kg/injection, schedule: Q01DX009 (ip), vehicle: other 94 % of control | [6] 94 % of control | [7] 118 % of control | [8] 109 % of control

Nc1nc(N)c(CCCOc2ccc(C(=O)O)cc2)c(N)n1
inactive: [2] 94 % of control | endpoint: mean survival time, dose: 100.0 mg/kg/injection, schedule: Q01DX009 (ip), vehicle: Klucel (hydroxypropylcellulose) (HPC) 101 % of control | endpoint: mean survival time, dose: 200.0 mg/kg/injection, schedule: Q01DX009 (ip), vehicle: Klucel (hydroxypropylcellulose) (HPC) 94 % of control

N#CC(C#N)=Cc1ccc(Cl)cc1
inactive: endpoint: mean survival time, dose: 25.0 mg/kg/injection, schedule: Q04DX003 (ip), vehicle: saline with Tween-80 89 % of control | endpoint: mean survival time, dose: 50.0 mg/kg/injection, schedule: Q04DX003 (ip), vehicle: saline with Tween-80 101 % of control | [9] 86 % of control and 98 % of control

CC(C)(C)C1=CC(=C2C=C(C(C)(C)C)C(=O)C(C(C)(C)C)=C2)C=C(C(C)(C)C)C1=O
inactive: endpoint: mean survival time, dose: 75.0 mg/kg/injection, schedule: Q04DX003 (ip), vehicle: saline with Tween-80 100 % of control | [3] 95 % of control | endpoint: mean survival time, dose: 150.0 mg/kg/injection, schedule: Q04DX003 (ip), vehicle: saline with Tween-80 100 % of control | [4] 91 % of control | endpoint: mean survival time, dose: 300.0 mg/kg/injection, schedule: Q04DX003 (ip), vehicle: saline with Tween-80 89 % of control | [5] 91 % of control

O=C1C(C2CC3c4[nH]c5ccccc5c4CCN3C2=O)CC2c3[nH]c4ccccc4c3CCN12 (configuration not stated)
inactive: [10] 93 % of control | [11] 93 % of control | [12] 93 % of control

N#Cc1ccc(NC=O)cc1
inactive: endpoint: mean survival time, dose: 100.0 mg/kg/injection, schedule: Q04DX003 (ip), vehicle: Klucel (hydroxypropylcellulose) (HPC) 98 % of control | endpoint: mean survival time, dose: 200.0 mg/kg/injection, schedule: Q04DX003 (ip), vehicle: Klucel (hydroxypropylcellulose) (HPC) 98 % of control | endpoint: mean survival time, dose: 400.0 mg/kg/injection, schedule: Q04DX003 (ip), vehicle: Klucel (hydroxypropylcellulose) (HPC) 102 % of control

COc1ccc(CC(O)CO)cc1OCc1ccccc1 (configuration not stated)
inactive: [3] 95 % of control | [4] 96 % of control | [5] 98 % of control

COc1cc2c(c(OC)c1OC)-c1cccc(=O)cc1C(NC(C)=O)CC2 (configuration not stated)
inactive: endpoint: median survival time, dose: 2.5 mg/kg/injection, schedule: Q01DX005 (ip), vehicle: saline 107 % of control | endpoint: median survival time, dose: 5.0 mg/kg/injection, schedule: Q01DX005 (ip), vehicle: saline 111 % of control | endpoint: median survival time, dose: 10.0 mg/kg/injection, schedule: Q01DX005 (ip), vehicle: saline 108 % of control and 111 % of control | endpoint: median survival time, dose: 20.0 mg/kg/injection, schedule: Q01DX005 (ip), vehicle: saline 117 % of control and 111 % of control | endpoint: median survival time, dose: 40.0 mg/kg/injection, schedule: Q01DX005 (ip), vehicle: saline 116 % of control and 111 % of control | endpoint: median survival time, dose: 80.0 mg/kg/injection, schedule: Q01DX005 (ip), vehicle: saline 122 % of control | endpoint: median survival time, dose: 160.0 mg/kg/injection, schedule: Q01DX005 (ip), vehicle: saline 122 % of control

CC(=O)OCC(=O)C1CCC2C3CCC4CC(OC(C)=O)CCC4(C)C3CCC12C (configuration not stated)
inactive: [13] 91 % of control | [14] 91 % of control | [15] 105 % of control

NC(CSSc1ccccc1)=NC1CCCCC1
inactive: endpoint: mean survival time, dose: 12.5 mg/kg/injection, schedule: Q01DX001 (ip), vehicle: Klucel (hydroxypropylcellulose) (HPC) 97 % of control | endpoint: mean survival time, dose: 25.0 mg/kg/injection, schedule: Q01DX001 (ip), vehicle: Klucel (hydroxypropylcellulose) (HPC) 92 % of control | [1] 97 % of control

OCCN1CCNC1=S
inactive: endpoint: mean survival time, dose: 100.0 mg/kg/injection, schedule: Q01DX009 (ip), vehicle: saline 97 % of control | endpoint: mean survival time, dose: 100.0 mg/kg/injection, schedule: Q04DX003 (ip), vehicle: saline 97 % of control | endpoint: mean survival time, dose: 200.0 mg/kg/injection, schedule: Q01DX009 (ip), vehicle: saline 97 % of control | endpoint: mean survival time, dose: 200.0 mg/kg/injection, schedule: Q04DX003 (ip), vehicle: saline 92 % of control | endpoint: mean survival time, dose: 400.0 mg/kg/injection, schedule: Q01DX009 (ip), vehicle: saline 102 % of control | endpoint: mean survival time, dose: 400.0 mg/kg/injection, schedule: Q04DX003 (ip), vehicle: saline 98 % of control

CN(C)CCC(O)C(O)CCN(C)C (configuration not stated)
inactive: endpoint: mean survival time, dose: 75.0 mg/kg/injection, schedule: Q01DX001 (ip), vehicle: other 102 % of control | endpoint: mean survival time, dose: 150.0 mg/kg/injection, schedule: Q01DX001 (ip), vehicle: other 102 % of control | endpoint: mean survival time, dose: 300.0 mg/kg/injection, schedule: Q01DX001 (ip), vehicle: other 103 % of control

CC(=O)CC(=O)C(C)(C)C(C)=O
inactive: [13] 98 % of control | endpoint: mean survival time, dose: 100.0 mg/kg/injection, schedule: Q01DX009 (ip), vehicle: saline sonified 97 % of control | [10] 117 % of control | [14] 104 % of control | endpoint: mean survival time, dose: 200.0 mg/kg/injection, schedule: Q01DX009 (ip), vehicle: saline sonified 105 % of control | [11] 102 % of control | [15] 101 % of control | endpoint: mean survival time, dose: 400.0 mg/kg/injection, schedule: Q01DX009 (ip), vehicle: saline sonified 100 % of control | [12] 98 % of control

CN1CCN(C(=O)NCCCl)CC1
inactive: endpoint: mean survival time, dose: 5.0 mg/kg/injection, schedule: Q01DX009 (ip), vehicle: saline 107 % of control | endpoint: mean survival time, dose: 5.0 mg/kg/injection, schedule: Q04DX003 (ip), vehicle: saline 93 % of control | endpoint: mean survival time, dose: 10.0 mg/kg/injection, schedule: Q01DX009 (ip), vehicle: saline 94 % of control | endpoint: mean survival time, dose: 10.0 mg/kg/injection, schedule: Q04DX003 (ip), vehicle: saline 92 % of control | endpoint: mean survival time, dose: 20.0 mg/kg/injection, schedule: Q04DX003 (ip), vehicle: saline 92 % of control

CCN1C(=O)CSC1=S
inactive: [6] 88 % of control | endpoint: mean survival time, dose: 100.0 mg/kg/injection, schedule: Q01DX001 (ip), vehicle: other 94 % of control | [7] 108 % of control | endpoint: mean survival time, dose: 100.0 mg/kg/injection, schedule: Q04DX003 (ip), vehicle: other 95 % of control | endpoint: mean survival time, dose: 200.0 mg/kg/injection, schedule: Q01DX001 (ip), vehicle: other 93 % of control | [8] 95 % of control | endpoint: mean survival time, dose: 200.0 mg/kg/injection, schedule: Q04DX003 (ip), vehicle: other 93 % of control | endpoint: mean survival time, dose: 400.0 mg/kg/injection, schedule: Q01DX001 (ip), vehicle: other 91 % of control

CCOC(=O)CC(=O)C(F)(F)F.CCOC(=O)CC(=O)C(F)(F)F.[Ni]
inactive: endpoint: mean survival time, dose: 150.0 mg/kg/injection, schedule: Q01DX001 (ip), vehicle: saline 115 % of control

Nc1cc(Cl)c(Cl)cc1S(=O)(=O)NO
inactive: [9] 95 % of control | endpoint: mean survival time, dose: 400.0 mg/kg/injection, schedule: Q04DX003 (ip), vehicle: saline with Tween-80 89 % of control

CC(=O)NC1=CC(OC(C)=O)C(COC(C)=O)OC1n1cnc2c1c(=O)n(C)c(=O)n2C (configuration not stated)
inactive: endpoint: mean survival time, dose: 12.5 mg/kg/injection, schedule: Q01DX005 (ip), vehicle: distilled water + Tween-80 93 % of control | endpoint: mean survival time, dose: 25.0 mg/kg/injection, schedule: Q01DX005 (ip), vehicle: distilled water + Tween-80 88 % of control | endpoint: mean survival time, dose: 50.0 mg/kg/injection, schedule: Q01DX005 (ip), vehicle: distilled water + Tween-80 88 % of control | endpoint: mean survival time, dose: 200.0 mg/kg/injection, schedule: Q01DX005 (ip), vehicle: distilled water + Tween-80 88 % of control
